The text below walks through data of US20060167115A1, “Compositions for the preservation of timber” (priority 2003, published 2006).

One assay has as its system Coniophora puteana. In words: Biological screening test (modified EN 113) of TBBA homologues. The assay is classed as cell-based. The following applies: 8 weeks exposure; for Protective Effect (retention of the active ingredient in the wood): waterborne. The procedure:
(§1) The following fungi were employed: Coniophora puteana (Brown rot fungus) and Poria placenta (Brown rot fungus). The following preservatives were tested: TBBF (waterborne), TBBE (waterborne), TBBZ (waterborne) and TBBS (waterborne).
(§2) Five concentrations of each preservative were tested: 3.0%, 2.0%, 1.0%, 0.1% and 0.05% (w/w). All wood blocks were of Scots pine sapwood (Pinus sylvestris) with a volume of 1 cm^3 (10 mm×10 mm×10 mm). Five replicates were used for each test specimen type and six virulence control specimens for each fungus and for each preservative were used as follows: • Treated test specimens: 2 (fungi)×5 (preservative concentrations)×1 (preservative)×5 (replicates)=50 test blocks • Untreated test specimens (for exposure alongside […] test blocks): 2 (fungi)×5 (preservative concentrations)×1 (preservative)×5 (replicates)=50 test blocks • Treated check test specimens: 1 (preservative)×5 (concentrations)×5 (replicates)=25 blocks
(§3) For all actives/preservatives in the test: • Virulence control specimens: 2 (fungi)×6 (replicates)=12 test blocks
(§4) After block treatments were completed, all the blocks were sterilized using ionizing radiation according to the conditions set out in European standard EN 113. The incubation period for the test (length of block exposure to the chosen basidiomycete fungi) was 8 weeks.
(§5) Weight changes for particular waterlogged specimens, when these were clearly unrepresentative of a group, were not included in the mean figures presented.

For another assay, the system named is Poria placenta. The description is as above. The class given is cell-based. Particulars: 8 weeks exposure; for Protective Effect (retention of the active ingredient in the wood): waterborne. How it is done:
as §1, §2, §3, §4, §5

Where [1] appears, read: TBBS waterborne 0.05% w/w, retention 0.4 kg/m^3.
Setting [2] is: TBBS waterborne 0.1% w/w, retention 0.8 kg/m^3.
Setting [3] is: TBBZ waterborne 0.05% w/w, retention 0.4 kg/m^3, some waterlogging.
Setting [4] is: TBBF waterborne 0.05% w/w, retention 0.4 kg/m^3.
Setting [5] is: TBBE waterborne 0.05% w/w, retention 0.4 kg/m^3.

Structures are written as SMILES.

Consider `O=S(=O)(c1cc(Br)c(O)c(Br)c1)c1cc(Br)c(O)c(Br)c1` [TBBS, 4,4′-Sulfonyldi(2,6-dibromophenol)], for which the “Corrected mean loss in mass (%)” value is on record as 35.02 (6.61) % with Coniophora puteana (setting [1]); 35.49 (4.92) % in the assay with Coniophora puteana (setting [2]); “No Decay” in the assay with Coniophora puteana (TBBS waterborne 1.0% w/w, retention 7.6 kg/m^3); “No Decay” in the assay on Coniophora puteana (TBBS waterborne 2.0% w/w, retention 16.1 kg/m^3); “No Decay” in the assay with Coniophora puteana (TBBS waterborne 3.0% w/w, retention 20.2 kg/m^3); “No Decay” in the assay with Poria placenta (setting [1]). The “Corrected mean loss in mass (%)” value in the assay on Poria placenta (setting [2]) is on record as “No Decay”; in the assay with Poria placenta (TBBS waterborne 1.0% w/w, retention 7.9 kg/m^3), “No Decay”; in the assay with Poria placenta (TBBS waterborne 2.0% w/w, retention 15.3 kg/m^3), “No Decay”; in the assay on Poria placenta (TBBS waterborne 3.0% w/w, retention 25.0 kg/m^3), “No Decay”. Further, the “Protective Effect (retention of the active ingredient in the wood)” value (“Protective Effect” below) in the assay on Coniophora puteana is 0.8-7.6 kg/m^3; in the assay with Poria placenta, 0.8-7.9 kg/m^3.
`Oc1c(Br)cc(C2(c3cc(Br)c(O)c(Br)c3)CCCCC2)cc1Br` [TBBZ, 4,4′-Cyclohexylidenebis(2,6-dibromophenol)]: the “Corrected mean loss in mass (%)” value was 33.57 (7.59) (W) % with Coniophora puteana (setting [3]); 14.30 (—) % with Coniophora puteana (TBBZ waterborne 1.0% w/w, retention 6.8 kg/m^3); “No Decay” with Coniophora puteana (TBBZ waterborne 2.0% w/w, retention 11.8 kg/m^3); “No Decay” in the assay with Coniophora puteana (TBBZ waterborne 3.0% w/w, retention 17.6 kg/m^3); 0.94 (3.19) (W) % in the assay on Poria placenta (setting [3]); 33.47 (15.74) % with Poria placenta (TBBZ waterborne 0.1% w/w, retention 0.8 kg/m^3). The “Corrected mean loss in mass (%)” value in the assay with Poria placenta (TBBZ waterborne 1.0% w/w, retention 5.9 kg/m^3) is “No Decay”; with Poria placenta (TBBZ waterborne 2.0% w/w, retention 11.6 kg/m^3), “No Decay”; in the assay on Poria placenta (TBBZ waterborne 3.0% w/w, retention 18.6 kg/m^3), “No Decay”. The “Protective Effect” value is given as 0.7-6.8 kg/m^3 with Coniophora puteana and 0.8-5.9 kg/m^3 in the assay with Poria placenta.
Consider `Oc1c(Br)cc(Cc2cc(Br)c(O)c(Br)c2)cc1Br` [TBBF, Bis(4-hydroxy-3,5-dibromophenyl)methane], for which the “Corrected mean loss in mass (%)” value is given as 26.87 (7.38) % in the assay with Coniophora puteana (setting [4]); 24.49 (2.12) (W) % in the assay with Coniophora puteana (TBBF waterborne 0.1% w/w, retention 0.8 kg/m^3, some waterlogging); “No Decay” in the assay on Coniophora puteana (TBBF waterborne 1.0% w/w, retention 7.9 kg/m^3); “No Decay” with Coniophora puteana (TBBF waterborne 2.0% w/w, retention 15.1 kg/m^3); “No Decay” with Coniophora puteana (TBBF waterborne 3.0% w/w, retention 23.1 kg/m^3); 24.20 (9.63) % with Poria placenta (setting [4]). Further, the “Corrected mean loss in mass (%)” value in the assay on Poria placenta (TBBF waterborne 0.1% w/w, retention 0.8 kg/m^3) was 20.90 (0.23) %; in the assay on Poria placenta (TBBF waterborne 1.0% w/w, retention 7.7 kg/m^3) it was “No Decay”; in the assay on Poria placenta (TBBF waterborne 2.0% w/w, retention 15.7 kg/m^3), “No Decay”; in the assay on Poria placenta (TBBF waterborne 3.0% w/w, retention 20.8 kg/m^3), “No Decay”. Besides, the “Protective Effect” value in the assay on Coniophora puteana was 0.8-7.9 kg/m^3; with Poria placenta it was 0.8-7.7 kg/m^3.
Take `CC(c1cc(Br)c(O)c(Br)c1)c1cc(Br)c(O)c(Br)c1` [TBBE, 4,4′-Ethylidenebis(2,6-dibromophenol)]: the “Corrected mean loss in mass (%)” value in the assay with Coniophora puteana (setting [5]) was 22.96 (4.81) %; in the assay on Coniophora puteana (TBBE waterborne 0.1% w/w, retention 0.7 kg/m^3) it was 26.57 (2.99) %; in the assay with Coniophora puteana (TBBE waterborne 1.0% w/w, retention 7.9 kg/m^3) it was “No Decay”; with Coniophora puteana (TBBE waterborne 2.0% w/w, retention 14.7 kg/m^3), “No Decay”; with Coniophora puteana (TBBE waterborne 3.0% w/w, retention 24.7 kg/m^3) it was “No Decay”; in the assay on Poria placenta (setting [5]) it was “No Decay (0.89)”. Also, the “Corrected mean loss in mass (%)” value is 28.67 (14.13) % with Poria placenta (TBBE waterborne 0.1% w/w, retention 0.8 kg/m^3); “No Decay (W)” with Poria placenta (TBBE waterborne 1.0% w/w, retention 8.3 kg/m^3, some waterlogging); “No Decay (W)” in the assay on Poria placenta (TBBE waterborne 2.0% w/w, retention 14.4 kg/m^3, some waterlogging); “No Decay” in the assay with Poria placenta (TBBE waterborne 3.0% w/w, retention 24.6 kg/m^3). Besides, the figures for the “Protective Effect” value in the assay with Coniophora puteana and in the assay on Poria placenta were 0.7-7.9 kg/m^3 and 0.8-8.3 kg/m^3, respectively.
